Experimental data: patent publication US20110039762A1, “TARGETED ANTIMICROBIAL MOIETIES” (C3 JIAN, INC., priority 2009, published 2011)
Entries after “also recorded” stand apart in the source; their conditions may differ.

What was measured:
E. faecalis = assay: Kill or inhibit growth/proliferation; morphology, biofilm and growth disruption (Tables 5, 6); assay type: cell-based, Enterococcus faecalis; design: key: A: Peptide aggregates; B: Less hyphal formation; Clumps; Diffuse clumps and small polyps; F: Diffuse growth; H: Thin; I: Growth inhibition; Microcolony formation; Rippled; Small polyps; Thick; W: Halo formation on top, microlonies on bottom; further: test concentration or dose not given here
MRSA = assay: as above; assay type: cell-based, Methicillin-resistant Staphylococcus aureus; design: key: A: Peptide aggregates; B: Less hyphal formation; Clumps; Diffuse clumps and small polyps; F: Diffuse growth; H: Thin; I: Growth inhibition; Microcolony formation; Rippled; Small polyps; Thick; W: Halo formation on top, microlonies on bottom
[1] = system: microorganisms (e.g., bacteria, yeasts, fungi); assay: Targeting peptide binding to target microorganisms (Table 3); conditions: preferably 1x PBS; for Target(s): microorganism(s) the targeting peptide binds, peptide binding conducted in aqueous buffers varied by peptide solubility; for Target(s) (microorganisms bound by the targeting peptide): peptide binding in aqueous buffers varied by peptide solubility
microorganisms = assay: Peptides having multiple activities (targeting/binding, antimicrobial, growth or phenotype altering)
From the text: In certain embodiments, peptides described herein can have multiple activities. Thus for example, a peptide can have both binding/targeting activity and antimicrobial activity. Such peptides can be used, e.g., in a chimeric construct, for any or all of these properties. Thus, for example, a peptide designated “B” in Table 8 can be used as a targeting peptide. If it is also designated G or M it can also be used for antimicrobial activity.

S. pneumoniae = assay: Kill or inhibit growth/proliferation; morphology, biofilm and growth disruption (Tables 5, 6); assay type: cell-based, Streptococcus pneumoniae; design: key: A: Peptide aggregates; B: Less hyphal formation; Clumps; Diffuse clumps and small polyps; F: Diffuse growth; H: Thin; I: Growth inhibition; Microcolony formation; Rippled; Small polyps; Thick; W: Halo formation on top, microlonies on bottom; further: test concentration or dose not given here
Wherever Organism, effect (morphology, biofilm and growth disruption) is given: test concentration or dose not given here.
Wherever Organism, effect is given: test concentration or dose not given here.

## PF-394: peptide having multiple activities (chain 1 VLKEECYQKN; chain 2 VLKEECYQKN; Peptide with targeting and/or antimicrobial activity)
E. faecalis
  Organism, effect: E. faecalis (A)
MRSA
  Organism, effect: MRSA (C)
[1]
  Target(s): S. epidermidis and MRSA and C. jejuni
microorganisms
  Activities: G B

## PF-643 (chain 1 VRCRL; chain 2 VRCRL; Peptide with targeting and/or antimicrobial activity)
E. faecalis
  Organism, effect: E. faecalis (R)
MRSA
  Organism, effect: MRSA (C)
S. pneumoniae
  Organism, effect: S. pneumoniae (R)
[1]
  Target(s) (microorganisms bound by the targeting peptide): Mycobacteria spp

## PF-621: peptide having multiple activities (PPSSFLV; Peptide with targeting and/or antimicrobial activity)
E. faecalis
  Organism, effect: E. faecalis (H)
S. pneumoniae
  Organism, effect: S. pneumoniae (I)
[1]
  Target(s) (microorganisms bound by the targeting peptide): S. epidermidis; also recorded: C. albicans
microorganisms
  Activities: G B

## PF-675 (chain 1 EIIPISPTRRCEMHTMSSAEYRGL; chain 2 EIIPISPTRRCEMHTMSSAEYRGL; Peptide with targeting and/or antimicrobial activity)
E. faecalis
  Organism, effect (morphology, biofilm and growth disruption): E. faecalis (R)
S. pneumoniae
  Organism, effect (morphology, biofilm and growth disruption): S. pneumoniae (C)
[1]
  Target(s) (microorganisms bound by the targeting peptide): Mycobacteria spp

## PF-450: peptide having multiple activities (chain 1 HRNLIILQRTIFI; chain 2 HRNLIILQRTIFI; Peptide with targeting and/or antimicrobial activity)
E. faecalis
  Organism, effect: E. faecalis (C)
MRSA
  Organism, effect: MRSA (C)
S. pneumoniae
  Organism, effect: S. pneumoniae (C)
microorganisms
  Activities: G B

## PF-695 (chain 1 ALSVMLGNIPLVVPNANQL; chain 2 ALSVMLGNIPLVVPNANQL; Peptide with targeting and/or antimicrobial activity)
E. faecalis
  Organism, effect (morphology, biofilm and growth disruption): E. faecalis (R)
MRSA
  Organism, effect (morphology, biofilm and growth disruption): MRSA (R)
S. pneumoniae
  Organism, effect (morphology, biofilm and growth disruption): S. pneumoniae (C)
[1]
  Target(s) (microorganisms bound by the targeting peptide): Mycobacteria spp

## PF-618 (KLNTLNKKDNPSLNDQDKNAVLNLLALAK; Peptide with targeting and/or antimicrobial activity)
E. faecalis
  Organism, effect: E. faecalis (H)
S. pneumoniae
  Organism, effect: S. pneumoniae (I)

## PF-604: peptide having multiple activities (LMEQVEV; Peptide with targeting and/or antimicrobial activity)
E. faecalis
  Organism, effect: E. faecalis (A)
[1]
  Target(s) (microorganisms bound by the targeting peptide): S. epidermidis; also recorded: C. albicans; also recorded: C. jeikeium
microorganisms
  Activities: G B

## PF-631: peptide having multiple activities (chain 1 LIIYFSKTGNTARATRQI; chain 2 LIIYFSKTGNTARATRQI; Peptide with targeting and/or antimicrobial activity)
E. faecalis
  Organism, effect: E. faecalis (H)
S. pneumoniae
  Organism, effect: S. pneumoniae (I)
[1]
  Target(s) (microorganisms bound by the targeting peptide): S. epidermidis and P. aeruginosa and C. albicans and MRSA and S. pneumoniae and E. faecalis and C. jeikeium
microorganisms
  Activities: G B

## PF-593: peptide having multiple activities (MEISTLKKEKLHVKDELSQYLANYKK; Peptide with targeting and/or antimicrobial activity)
E. faecalis
  Organism, effect: E. faecalis (A)
[1]
  Target(s): C. jeikeium
microorganisms
  Activities: G B
